This note sets out measurements from US11603377B2, “MTORC1 modulators and uses thereof” (Aeovian Pharmaceuticals, Inc., priority 2020, dated 2023).

One assay addresses mTORC1 (Homo sapiens (Human), UniProt P42345+P62942). The experiment in a line: mTORC1 inhibition, AlphaLISA of Phospho-p70 S6 kinase (p70S6K pT389) in PC-3 cells. It counts as cell-based. To be noted: inhibition of p70S6K pT389 levels.
The next assay has as its target mTORC2 (Homo sapiens (Human), UniProt P42345+P62942). Description: mTORC2 inhibition, AlphaLISA of Phospho-AKT (pAKT pS473) in PC3 cells. Type of assay: cell-based.
The target of assay [1] is FKBP51 / FRB ternary complex (Homo sapiens (Human), UniProt P42345+Q13451). Description: SPR assay to characterize ternary complex formation with FKBP51 (FRB binding to rapalog-saturated FKBP51). To be noted: FRB dilutions with 100 nM rapalog on immobilized FKBP51. Summed up:
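SPR with biotinylated avi-FKBP51 on streptavidin chip (~200 RU); FRB (0.00011-20 μM, 3-fold series) injected with 100 nM rapalog, A-B-A mode keeping FKBP saturated with rapalog.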
(Surface plasmon resonance follows binding to a sensor surface in real time, without labels.)

The next assay deals with FKBP12 (Homo sapiens (Human), UniProt P62942). The experiment in a line: SPR assay to determine binding affinity to FKBP12 (direct binding). To be noted: immobilized biotinylated avi-FKBP12.
Chain of FKBP12 (P62942 whole entry): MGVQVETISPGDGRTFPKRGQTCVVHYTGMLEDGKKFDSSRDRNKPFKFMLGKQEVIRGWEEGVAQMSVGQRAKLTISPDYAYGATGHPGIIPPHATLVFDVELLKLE
Assay [2] concerns the target FKBP12 / FRB ternary complex (Homo sapiens (Human), UniProt P42345+P62942). The experiment in a line: SPR assay to characterize ternary complex formation with FKBP12 (FRB binding to rapalog-saturated FKBP12). The conditions noted are these: FRB dilutions with 100 nM rapalog on immobilized FKBP12. Summed up:
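Biotinylated avi-FKBP12 immobilized (~100 RU) on streptavidin chip; A-B-A injections kept FKBP12 saturated with 100 nM rapalog while FRB (0.00011–20 μM, 3-fold, 12 points) was injected 120 s.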

The target of another assay is FKBP51 (Homo sapiens (Human), UniProt Q13451). Description: SPR assay to determine binding affinity to FKBP51 (direct binding). The conditions noted are these: immobilized biotinylated avi-FKBP51. Summed up: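 Biotinylated avi-FKBP51 captured on streptavidin chip to about 2000 RU. Compounds injected at 0.5-1000 nM (8 points, 3-fold) for 120 s contact and 3600 s dissociation in 50 mM HEPES pH 7.5, 150 mM NaCl, 2 mM MgCl2, 1 mM DTT, 0.05% Tween-20, 1% DMSO.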
Chain of FKBP51 (Q13451 whole entry): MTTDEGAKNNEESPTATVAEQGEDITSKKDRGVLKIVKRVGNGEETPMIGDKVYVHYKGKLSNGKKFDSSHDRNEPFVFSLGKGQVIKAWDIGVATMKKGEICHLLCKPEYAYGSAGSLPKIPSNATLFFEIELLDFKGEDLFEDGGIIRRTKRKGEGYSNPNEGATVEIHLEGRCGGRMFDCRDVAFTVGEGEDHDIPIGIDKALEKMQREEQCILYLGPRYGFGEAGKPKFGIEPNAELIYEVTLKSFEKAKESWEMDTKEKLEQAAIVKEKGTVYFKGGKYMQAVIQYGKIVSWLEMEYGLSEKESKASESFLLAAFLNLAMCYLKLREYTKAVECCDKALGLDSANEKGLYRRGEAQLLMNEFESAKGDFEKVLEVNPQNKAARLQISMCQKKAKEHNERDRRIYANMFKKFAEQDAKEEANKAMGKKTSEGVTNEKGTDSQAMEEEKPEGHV

In general, IC50 refers to the concentration that inhibits the measured activity by half. One may read the Kd as the free concentration of one partner at which half of the binding sites on the other are occupied at equilibrium, for simple one-to-one binding. On mTORC1, `CCOC(=O)COC1CCC(CC(C)C2CC(=O)C(C)C=C(C)C(O)C(OC)C(=O)C(C)CC(C)C=CC=CC=C(C)C(OCCOC)CC3CCC(C)C(O)(O3)C(=O)C(=O)N3CCCCC3C(=O)O2)CC1OC` (stereo not drawn) [Compound 56] gave an IC50 of 0.1 to 0.8 nM. Besides, at mTORC2, the “mTORC2 % inhibition at 1 uM” value was “C (C≥40% and less than 60% inhibition at 1 uM)”. In addition, the Kd was > 800 nM in assay [1], < 0.3 nM at FKBP12, 300 to 800 nM in assay [2] and > 100 nM at FKBP51.

As for `COCCOC1CC2CCC(C)C(O)(O2)C(=O)C(=O)N2CCCCC2C(=O)OC(C(C)CC2CCC(OCC(=O)O)C(OC)C2)CC(=O)C(C)C=C(C)C(O)C(OC)C(=O)C(C)CC(C)C=CC=CC=C1C` (stereo not drawn) [Compound 57], the IC50 on mTORC1 is > 0.8 nM. Also, the “mTORC2 % inhibition at 1 uM” value on mTORC2 is “B (B>20% and less than 40% inhibition at 1 uM)”. Moreover, the Kd was > 800 nM in assay [1], > 1 nM on FKBP12, 300 to 800 nM in assay [2] and 10 to 100 nM at FKBP51.

On to `COC1C[C@H]2CC[C@H](C)[C@](O)(O2)C(=O)C(=O)N(C)C(C)C(=O)OC([C@H](C)C[C@@H]2CC[C@@H](OCCCS(C)(=O)=O)[C@H](OC)C2)CC(=O)C(C)/C=C(\C)C(O)C(OC)C(=O)C(C)CC/C=C/C=C/C=C/1C` (stereo partly drawn) [Compound 59], for which the IC50 against mTORC1 is < 0.1 nM. Moreover, at mTORC2, the “mTORC2 % inhibition at 1 uM” value is on record as “D (D≥60% inhibition at 1 uM)”. The Kd in assay [1] was 300 to 800 nM; on FKBP12, < 0.3 nM; in assay [2] it was < 300 nM; on FKBP51, 10 to 100 nM.

For the compound `CO[C@@H]1C[C@H](C[C@@H](C)[C@@H]2CC(=O)[C@H](C)/C=C(\C)[C@@H](O)[C@@H](OC)C(=O)[C@H](C)C[C@H](C)/C=C/C=C/C=C(\C)[C@@H](OCC3CC3)C[C@@H]3CC[C@@H](C)[C@@](O)(O3)C(=O)C(=O)N3CCCC[C@H]3C(=O)O2)CC[C@H]1OCCCS(C)(=O)=O` [Compound 60], the IC50 at mTORC1 fell in the range of 0.1 to 0.8 nM. The “mTORC2 % inhibition at 1 uM” value on mTORC2 was “B (B>20% and less than 40% inhibition at 1 uM)”. The Kd in assay [1] was > 800 nM; at FKBP12, > 1 nM; in assay [2], < 300 nM; at FKBP51, > 100 nM.

With `COCCO[C@H]1C[C@@H]2CC[C@@H](C)[C@@](O)(O2)C(=O)C(=O)N2CCCC[C@H]2C(=O)O[C@H]([C@H](C)C[C@@H]2CC[C@@H](OCCCS(C)(=O)=O)[C@H](OC)C2)CC(=O)[C@H](C)/C=C(\C)[C@@H](O)[C@@H](OC)C(=O)[C@H](C)C[C@H](C)/C=C/C=C/C=C/1C` [Compound 61], the IC50 against mTORC1 was < 0.1 nM. Further, the “mTORC2 % inhibition at 1 uM” value at mTORC2 is “B (B>20% and less than 40% inhibition at 1 uM)”. Also, the Kd in assay [1] is > 800 nM; at FKBP12, < 0.3 nM; in assay [2] it was < 300 nM; on FKBP51, > 100 nM.

For `CO[C@@H]1C[C@H](C[C@@H](C)[C@@H]2CC(=O)[C@H](C)/C=C(\C)[C@@H](O)[C@@H](OC)C(=O)[C@H](C)C[C@H](C)/C=C/C=C/C=C(\C)[C@@H](OCC3CCC3)C[C@@H]3CC[C@@H](C)[C@@](O)(O3)C(=O)C(=O)N3CCCC[C@H]3C(=O)O2)CC[C@H]1OCCCS(C)(=O)=O` [Compound 62], the IC50 at mTORC1 is > 0.8 nM. For the same compound, the “mTORC2 % inhibition at 1 uM” value at mTORC2 is “C (C≥40% and less than 60% inhibition at 1 uM)”. Moreover, the Kd is > 800 nM in assay [1], > 1 nM at FKBP12, < 300 nM in assay [2] and > 100 nM at FKBP51.

Consider `CO[C@@H]1C[C@H](C[C@@H](C)[C@@H]2CC(=O)[C@H](C)/C=C(\C)[C@@H](O)[C@@H](OC)C(=O)[C@H](C)C[C@H](C)/C=C/C=C/C=C(\C)[C@@H](OC3CC3)C[C@@H]3CC[C@@H](C)[C@@](O)(O3)C(=O)C(=O)N3CCCC[C@H]3C(=O)O2)CC[C@H]1OCCCS(C)(=O)=O` [Compound 64], for which, at mTORC1, the 50% inhibitory concentration (IC50) was in the range of 0.1 to 0.8 nM. Moreover, the “mTORC2 % inhibition at 1 uM” value on mTORC2 is “C (C≥40% and less than 60% inhibition at 1 uM)”. For the same compound, the Kd is < 300 nM in assay [1], 0.3 to 1 nM at FKBP12, < 300 nM in assay [2] and > 100 nM on FKBP51.

With `COC1C(=O)C(C)CC/C=C/C=C/C=C(\C)C(CCO)C[C@H]2CC[C@H](C)[C@](O)(O2)C(=O)C(=O)N(C)C(C)C(=O)OC([C@H](C)C[C@@H]2CC[C@@H](OCCCS(C)(=O)=O)[C@H](OC)C2)CC(=O)C(C)/C=C(\C)C1O` (stereo partly drawn) [Compound 67], the IC50 at mTORC1 is 0.1 to 0.8 nM. For the same compound, the “mTORC2 % inhibition at 1 uM” value on mTORC2 was “B (B>20% and less than 40% inhibition at 1 uM)”. The Kd is > 800 nM in assay [1], < 0.3 nM on FKBP12, 300 to 800 nM in assay [2] and 10 to 100 nM at FKBP51.

Turning to `CO[C@@H]1C[C@H](C[C@@H](C)[C@@H]2CC(=O)[C@H](C)/C=C(\C)[C@@H](O)[C@@H](OC)C(=O)[C@H](C)C[C@H](C)/C=C/C=C/C=C(\C)[C@@H](OCCCO)C[C@@H]3CC[C@@H](C)[C@@](O)(O3)C(=O)C(=O)N3CCCC[C@H]3C(=O)O2)CC[C@H]1OCCCS(C)(=O)=O` [Compound 68], on mTORC1, the IC50 was < 0.1 nM. Moreover, at mTORC2, the “mTORC2 % inhibition at 1 uM” value was “C (C≥40% and less than 60% inhibition at 1 uM)”. Further, the Kd in assay [1] was > 800 nM; on FKBP12 it was < 0.3 nM; in assay [2], < 300 nM; at FKBP51, 10 to 100 nM.

At mTORC1, `CO[C@@H]1C[C@H](C[C@@H](C)[C@@H]2CC(=O)[C@H](C)/C=C(\C)[C@@H](O)[C@@H](OC)C(=O)[C@H](C)C[C@H](C)/C=C/C=C/C=C(\C)[C@H](OCCCO)C[C@@H]3CC[C@@H](C)[C@@](O)(O3)C(=O)C(=O)N3CCCC[C@H]3C(=O)O2)CC[C@H]1OCCCS(C)(=O)=O` [Compound 69] yielded an IC50 of 0.1 to 0.8 nM. Moreover, the “mTORC2 % inhibition at 1 uM” value at mTORC2 is “B (B>20% and less than 40% inhibition at 1 uM)”. Moreover, the Kd was > 800 nM in assay [1], 0.3 to 1 nM on FKBP12, 300 to 800 nM in assay [2] and 10 to 100 nM on FKBP51.
